{
  "source": "ChEMBL document CHEMBL6096698",
  "about": "“Discovery of a Selective and Orally Bioavailable RET Degrader with Effectiveness in Various Mutations” (J Med Chem, 2025)",
  "key": {"[1]": {"test_system": "BaF3", "assay": "Antiproliferative activity against mouse BaF3 cells stably expressing KIF5B-RET G810C mutant incubated for 72 hrs by CCK8 assay", "assay_type": "functional, cell-based", "conditions": "BaF3, 72 h"}, "[2]": {"test_system": "BaF3", "assay": "Antiproliferative activity against mouse BaF3 cells stably expressing KIF5B-RET G810R mutant incubated for 72 hrs by CCK8 assay", "assay_type": "functional, cell-based", "conditions": "BaF3, 72 h"}, "[3]": {"test_system": "BaF3", "assay": "Antiproliferative activity against mouse BaF3 cells stably expressing KIF5B-RET G810S mutant incubated for 72 hrs by CCK8 assay", "assay_type": "functional, cell-based", "conditions": "BaF3, 72 h"}, "[4]": {"test_system": "BaF3", "assay": "Antiproliferative activity against mouse BaF3 cells stably expressing CCDC6-RET incubated for 72 hrs by CCK8 assay", "assay_type": "functional, cell-based", "conditions": "BaF3, 72 h"}, "[5]": {"test_system": "BaF3", "assay": "Antiproliferative activity against mouse BaF3 cells stably expressing CCDC6-RET V804M mutant incubated for 72 hrs by CCK8 assay", "assay_type": "functional, cell-based", "conditions": "BaF3, 72 h"}, "[6]": {"test_system": "BaF3", "assay": "Antiproliferative activity against mouse BaF3 cells stably expressing CCDC6-RET G810C mutant incubated for 72 hrs by CCK8 assay", "assay_type": "functional, cell-based", "conditions": "BaF3, 72 h"}, "[7]": {"test_system": "MCF7", "assay": "Cytotoxicity against human MCF7 cells", "assay_type": "functional, cell-based"}, "[8]": {"test_system": "HL-60", "assay": "Cytotoxicity against human HL-60 cells", "assay_type": "functional, cell-based"}, "[9]": {"assay": "Cytotoxicity against human HEK293 cells", "assay_type": "toxicity, cell-based"}, "[10]": {"test_system": "BaF3", "assay": "Cytotoxicity against mouse BaF3 cells", "assay_type": "functional, cell-based"}, "[11]": {"molecular_target": "Proto-oncogene tyrosine-protein kinase receptor Ret (Homo sapiens, UniProt P07949)", "sequence (P07949 whole entry)": "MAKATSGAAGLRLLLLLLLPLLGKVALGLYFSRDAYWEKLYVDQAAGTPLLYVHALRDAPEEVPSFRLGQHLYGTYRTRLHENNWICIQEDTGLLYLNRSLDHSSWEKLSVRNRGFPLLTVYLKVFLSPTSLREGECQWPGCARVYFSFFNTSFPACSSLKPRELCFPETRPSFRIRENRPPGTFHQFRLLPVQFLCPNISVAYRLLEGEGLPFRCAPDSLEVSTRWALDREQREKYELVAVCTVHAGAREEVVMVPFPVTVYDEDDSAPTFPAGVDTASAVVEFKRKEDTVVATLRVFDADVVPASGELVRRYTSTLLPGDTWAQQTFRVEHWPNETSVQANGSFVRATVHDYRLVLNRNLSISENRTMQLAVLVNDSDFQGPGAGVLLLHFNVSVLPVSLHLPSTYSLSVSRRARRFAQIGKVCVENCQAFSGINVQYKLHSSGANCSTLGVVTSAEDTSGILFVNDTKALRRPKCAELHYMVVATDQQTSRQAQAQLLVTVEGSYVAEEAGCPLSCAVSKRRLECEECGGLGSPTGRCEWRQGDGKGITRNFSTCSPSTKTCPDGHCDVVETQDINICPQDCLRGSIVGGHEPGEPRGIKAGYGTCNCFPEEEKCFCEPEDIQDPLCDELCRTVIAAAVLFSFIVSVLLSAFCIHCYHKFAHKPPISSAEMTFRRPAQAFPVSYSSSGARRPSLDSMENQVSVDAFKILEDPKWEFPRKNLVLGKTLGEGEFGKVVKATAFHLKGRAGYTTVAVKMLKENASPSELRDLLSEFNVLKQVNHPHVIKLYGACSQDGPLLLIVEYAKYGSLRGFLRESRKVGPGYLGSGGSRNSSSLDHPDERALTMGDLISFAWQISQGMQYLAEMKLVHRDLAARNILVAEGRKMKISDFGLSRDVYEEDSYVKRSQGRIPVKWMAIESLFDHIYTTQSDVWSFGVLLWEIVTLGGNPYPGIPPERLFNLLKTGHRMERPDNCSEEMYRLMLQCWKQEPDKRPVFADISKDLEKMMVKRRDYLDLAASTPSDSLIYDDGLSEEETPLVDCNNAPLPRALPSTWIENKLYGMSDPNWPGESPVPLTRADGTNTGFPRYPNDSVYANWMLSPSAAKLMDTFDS", "assay": "Inhibition of RET (unknown origin) preincubated for 10 mins followed by substrate/ATP addition measured after 30 mins by HTRF assay"}, "[12]": {"test_system": "BaF3", "assay": "PROTAC activity at CRBN/KIF5B-RET (unknown origin) expressed in mouse BaF3 cells assessed as induction of RET degradation at 1 to 100 nM incubated for 24 hrs by immunoblot analysis relative to control", "assay_type": "cell-based", "conditions": "dose 1-100 nM"}, "[13]": {"assay": "PROTAC activity at CRBN/KIF5B-RET G810C mutant (unknown origin) expressed in mouse BaF3 cells assessed as induction of RET G810C mutant degradation incubated for 24 hrs by immunoblot analysis", "assay_type": "cell-based", "conditions": "BaF3, 24 h"}, "[14]": {"test_system": "BaF3", "assay": "PROTAC activity at CRBN/KIF5B-RET (unknown origin) expressed in mouse BaF3 cells assessed as induction of RET degradation at 20 nM incubated for 8 to 24 hrs by immunoblot analysis", "assay_type": "cell-based", "conditions": "time 8-24 hrs"}, "[15]": {"test_system": "BaF3", "assay": "PROTAC activity at CRBN/KIF5B-RET (unknown origin) expressed in mouse BaF3 cells assessed as induction of RET degradation at 10 nM incubated for 24 hrs by immunoblot analysis", "assay_type": "cell-based"}, "[16]": {"test_system": "BaF3", "assay": "PROTAC activity at CRBN/KIF5B-RET (unknown origin) expressed in mouse BaF3 cells assessed as induction of RET degradation at 10 nM incubated for 24 hrs in presence of MG132 by immunoblot analysis", "assay_type": "cell-based"}, "[17]": {"test_system": "BaF3", "assay": "PROTAC activity at CRBN/KIF5B-RET (unknown origin) expressed in mouse BaF3 cells assessed as induction of RET degradation at 10 nM incubated for 24 hrs in presence of MLN4924 by immunoblot analysis", "assay_type": "cell-based"}, "[18]": {"test_system": "BaF3", "assay": "PROTAC activity at CRBN/KIF5B-RET G810C mutant (unknown origin) expressed in mouse BaF3 cells assessed as decrease in Shc activation incubated for 24 hrs by immunoblot analysis", "assay_type": "cell-based", "conditions": "dose 1-50 nM"}, "[19]": {"assay": "Induction of apoptosis in mouse BaF3 cells stably expressing KIF5B-RET G810C mutant assessed as late apoptotic cells at 10 nM incubated for 48 hrs by Annexin V-FITC/PI staining based flow cytometry (reference value: 5.99 %)", "assay_type": "functional"}, "[20]": {"assay": "Induction of apoptosis in mouse BaF3 cells stably expressing KIF5B-RET G810C mutant assessed as viable cells at 20 nM incubated for 48 hrs by Annexin V-FITC/PI staining based flow cytometry (reference value: 92.21 %)", "assay_type": "functional", "conditions": "read-out: Activity"}, "[21]": {"assay": "Induction of apoptosis in mouse BaF3 cells stably expressing KIF5B-RET G810C mutant assessed as late apoptotic cells at 20 nM incubated for 48 hrs by Annexin V-FITC/PI staining based flow cytometry (reference value: 5.99 %)", "assay_type": "functional"}, "[22]": {"assay": "Induction of apoptosis in mouse BaF3 cells stably expressing KIF5B-RET G810C mutant assessed as viable cells at 40 nM incubated for 48 hrs by Annexin V-FITC/PI staining based flow cytometry (reference value: 92.21 %)", "assay_type": "functional", "conditions": "read-out: Activity"}, "[23]": {"assay": "Induction of apoptosis in mouse BaF3 cells stably expressing KIF5B-RET G810C mutant assessed as necrotic cells at 40 nM incubated for 48 hrs by Annexin V-FITC/PI staining based flow cytometry (reference value: 0.94 %)", "assay_type": "functional"}, "[24]": {"assay": "Induction of apoptosis in mouse BaF3 cells stably expressing KIF5B-RET G810C mutant assessed as apoptotic cells at 20 nM incubated for 48 hrs by Annexin V-FITC/PI staining based flow cytometry (reference value: 6.7 %)", "assay_type": "functional"}, "[25]": {"assay": "Induction of apoptosis in mouse BaF3 cells stably expressing KIF5B-RET G810C mutant assessed as apoptotic cells at 40 nM incubated for 48 hrs by Annexin V-FITC/PI staining based flow cytometry (reference value: 6.7 %)", "assay_type": "functional"}, "[26]": {"assay": "Half life in Sprague-Dawley rat at 1 mg/kg, iv measured for 24 hrs by LC-MS/MS analysis", "assay_type": "ADME, organism-based", "conditions": "in vivo"}, "[27]": {"assay": "Cmax in Sprague-Dawley rat at 1 mg/kg, iv measured for 24 hrs by LC-MS/MS analysis", "assay_type": "ADME, organism-based", "conditions": "in vivo"}, "[28]": {"assay": "Clearance in Sprague-Dawley rat at 1 mg/kg, iv measured for 24 hrs by LC-MS/MS analysis", "assay_type": "ADME, organism-based", "conditions": "in vivo"}, "[29]": {"assay": "Cmax in Sprague-Dawley rat at 10 mg/kg, po measured for 24 hrs by LC-MS/MS analysis", "assay_type": "ADME, organism-based", "conditions": "in vivo"}, "[30]": {"test_system": "BaF3", "assay": "Antitumor activity against mouse BaF3 cells stably expressing KIF5B-RET G810C mutant implanted in BALB/c nu/nu mouse at 10 mg/kg, po qd treated for 10 days relative to control", "assay_type": "functional", "conditions": "BaF3, 240 h, time 10 day, read-out: TGI"}, "[31]": {"assay": "Oral bioavailability in Sprague-Dawley rat at 10 mg/kg measured for 24 hrs by LC-MS/MS analysis", "assay_type": "ADME, organism-based", "conditions": "in vivo"}, "[32]": {"assay": "Toxicity in BALB/c nu/nu mouse implanted with mouse BaF3 cells stably expressing KIF5B-RET G810C mutant assessed as body weight loss at 10 mg/kg, po qd treated for 10 days", "assay_type": "organism-based", "conditions": "in vivo, 240 h, time 10 day"}, "[33]": {"test_system": "Kinesin-1 heavy chain/ Tyrosine-protein kinase receptor RET (Homo sapiens), P07949+P33176 [G810C]", "assay": "In vivo PROTAC activity at CRBN/KIF5B-RET G810C mutant (unknown origin) expressed in mouse BaF3 cells implanted in BALB/c nu/nu mouse assessed as induction of RET G810C mutant degradation at 10 mg/kg, po bid treated for 10 days by Western blot analysis", "assay_type": "functional, organism-based", "conditions": "time 10.0 day"}, "[34]": {"test_system": "Kinesin-1 heavy chain/ Tyrosine-protein kinase receptor RET (Homo sapiens), P07949+P33176 [G810C]", "assay": "In vivo PROTAC activity at CRBN/KIF5B-RET G810C mutant (unknown origin) expressed in mouse BaF3 cells implanted in BALB/c nu/nu mouse assessed as induction of RET G810C mutant degradation at 10 mg/kg, po qd treated for 10 days by Western blot analysis", "assay_type": "functional, organism-based", "conditions": "time 10.0 day"}},
  "note": "Active and inactive are the calls of the source. The calls are words filed in the database; no cut-off is given here.",
  "data": [
    {"smiles": "COc1ccc(CN2C3CC2CN(c2ccc(-c4cc(N5CCC(N6CCN(CCCC#Cc7cccc8c7CN(C7CCC(=O)NC7=O)C8=O)CC6)CC5)cn5ncc(C#N)c45)cn2)C3)cn1", "note": "(centres undefined)", "values": [
      {"measurement": "IC50", "setting": "[1]", "value": 5.3, "unit": "nM"},
      {"measurement": "IC50", "setting": "[2]", "value": 165, "unit": "nM"},
      {"measurement": "IC50", "setting": "[3]", "value": 22.6, "unit": "nM"},
      {"measurement": "IC50", "setting": "[4]", "value": 2.4, "unit": "nM"},
      {"measurement": "IC50", "setting": "[5]", "value": 4.5, "unit": "nM"},
      {"measurement": "IC50", "setting": "[6]", "value": 6.5, "unit": "nM"},
      {"measurement": "IC50", "setting": "[7]", "value": "> 5000", "unit": "nM"},
      {"measurement": "IC50", "setting": "[8]", "value": "> 5000", "unit": "nM"},
      {"measurement": "IC50", "setting": "[9]", "value": "> 5000", "unit": "nM"},
      {"measurement": "IC50", "setting": "[10]", "value": "> 5000", "unit": "nM"},
      {"measurement": "IC50", "setting": "[11]", "value": 0.371, "unit": "nM"},
      {"measurement": "Emax", "setting": "[12]", "value": 92, "unit": "%"},
      {"measurement": "DC50", "setting": "[13]", "value": 11.7, "unit": "nM"},
      {"measurement": "Activity", "setting": "[14]", "value": "Active"},
      {"measurement": "Activity", "setting": "[15]", "value": "Active"},
      {"measurement": "Activity", "setting": "[16]", "value": "inactive"},
      {"measurement": "Activity", "setting": "[17]", "value": "inactive"},
      {"measurement": "Activity", "setting": "[18]", "value": "Dose-dependent-effect"},
      {"measurement": "Activity", "setting": "[19]", "value": 15.87, "unit": "%"},
      {"measurement": "viability at 0.02 µM", "setting": "[20]", "value": 43.4, "unit": "%"},
      {"measurement": "Activity", "setting": "[21]", "value": 17.41, "unit": "%"},
      {"measurement": "viability at 0.04 µM", "setting": "[22]", "value": 27.9, "unit": "%"},
      {"measurement": "Activity", "setting": "[23]", "value": 0.54, "unit": "%"},
      {"measurement": "Activity", "setting": "[24]", "value": 55.4, "unit": "%"},
      {"measurement": "Activity", "setting": "[25]", "value": 71.3, "unit": "%"},
      {"measurement": "half-life", "setting": "[26]", "value": 6.98, "unit": "h"},
      {"measurement": "Cmax", "setting": "[27]", "value": 121, "unit": "ng/mL"},
      {"measurement": "clearance", "setting": "[28]", "value": 52.8, "unit": "mL/min/kg"},
      {"measurement": "Cmax", "setting": "[29]", "value": 161, "unit": "ng/mL"},
      {"measurement": "inhibition in vivo at 10 mg/kg", "setting": "[30]", "value": 62.3, "unit": "%"},
      {"measurement": "bioavailability", "setting": "[31]", "value": 40.3, "unit": "%"},
      {"measurement": "Activity", "setting": "[32]", "value": "Non-toxic"},
      {"measurement": "Activity", "setting": "[33]", "value": "Active"},
      {"measurement": "Activity", "setting": "[34]", "value": "Active"}
    ]}
  ]
}
